Activity calls are given as the source filed them.
Key:
[1] = molecular target: Tyrosine-protein kinase HCK (Homo sapiens, UniProt P08631)
[2] = molecular target: Ribosomal protein S6 kinase alpha-3 (Homo sapiens, UniProt P51812)
Ephrin type-B receptor 3 = molecular target: T1, Ephrin type-B receptor 3 (Homo sapiens, UniProt P54753)
T1 sequence (P54753 whole entry): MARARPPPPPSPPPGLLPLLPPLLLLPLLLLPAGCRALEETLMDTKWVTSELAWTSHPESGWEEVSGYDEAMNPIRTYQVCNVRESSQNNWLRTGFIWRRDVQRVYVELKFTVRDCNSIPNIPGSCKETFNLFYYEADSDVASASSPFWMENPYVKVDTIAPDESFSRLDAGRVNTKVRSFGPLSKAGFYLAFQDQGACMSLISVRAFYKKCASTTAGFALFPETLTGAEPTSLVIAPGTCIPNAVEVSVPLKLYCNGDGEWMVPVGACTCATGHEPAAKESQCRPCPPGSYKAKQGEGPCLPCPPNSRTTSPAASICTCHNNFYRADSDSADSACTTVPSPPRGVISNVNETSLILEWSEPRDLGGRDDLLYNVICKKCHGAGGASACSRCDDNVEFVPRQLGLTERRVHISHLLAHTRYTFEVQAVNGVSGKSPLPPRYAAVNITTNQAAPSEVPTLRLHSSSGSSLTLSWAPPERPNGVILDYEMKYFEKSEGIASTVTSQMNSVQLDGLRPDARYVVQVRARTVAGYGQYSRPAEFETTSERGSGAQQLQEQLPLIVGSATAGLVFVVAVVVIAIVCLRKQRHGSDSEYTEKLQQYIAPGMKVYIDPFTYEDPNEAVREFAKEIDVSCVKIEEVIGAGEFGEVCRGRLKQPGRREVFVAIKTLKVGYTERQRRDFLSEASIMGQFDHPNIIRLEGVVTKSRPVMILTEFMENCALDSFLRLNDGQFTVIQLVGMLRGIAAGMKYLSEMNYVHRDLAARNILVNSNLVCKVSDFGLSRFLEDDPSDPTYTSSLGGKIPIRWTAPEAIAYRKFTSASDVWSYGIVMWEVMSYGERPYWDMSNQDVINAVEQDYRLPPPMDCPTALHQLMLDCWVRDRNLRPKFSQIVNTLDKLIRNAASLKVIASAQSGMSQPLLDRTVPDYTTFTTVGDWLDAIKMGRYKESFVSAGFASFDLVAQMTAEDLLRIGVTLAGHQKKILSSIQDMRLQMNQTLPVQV

[3] = molecular target: T2, Beta-adrenergic receptor kinase 1 (Homo sapiens, UniProt P25098)
T2 sequence (P25098 whole entry): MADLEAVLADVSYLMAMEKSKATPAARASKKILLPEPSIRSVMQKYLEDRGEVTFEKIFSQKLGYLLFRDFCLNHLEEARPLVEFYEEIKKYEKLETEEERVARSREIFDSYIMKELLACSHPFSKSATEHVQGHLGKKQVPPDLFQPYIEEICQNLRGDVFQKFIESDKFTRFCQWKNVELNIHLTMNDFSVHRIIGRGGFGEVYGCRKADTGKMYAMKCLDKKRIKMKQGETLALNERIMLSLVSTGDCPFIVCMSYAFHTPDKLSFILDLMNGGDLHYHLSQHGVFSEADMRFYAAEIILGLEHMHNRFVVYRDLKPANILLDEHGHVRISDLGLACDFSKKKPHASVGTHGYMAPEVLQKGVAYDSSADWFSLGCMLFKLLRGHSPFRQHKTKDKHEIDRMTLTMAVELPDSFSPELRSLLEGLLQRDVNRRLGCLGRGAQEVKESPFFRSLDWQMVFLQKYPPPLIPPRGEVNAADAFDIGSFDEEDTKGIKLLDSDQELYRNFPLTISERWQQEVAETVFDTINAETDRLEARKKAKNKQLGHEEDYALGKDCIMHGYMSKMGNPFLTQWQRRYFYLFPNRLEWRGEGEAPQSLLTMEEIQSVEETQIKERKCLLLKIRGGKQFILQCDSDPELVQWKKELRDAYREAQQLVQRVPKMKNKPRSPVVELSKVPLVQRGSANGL

[4] = molecular target: Serine/threonine-protein kinase MRCK alpha (Homo sapiens, UniProt Q5VT25)
[5] = molecular target: Eukaryotic translation initiation factor 2-alpha kinase 1 (Homo sapiens, UniProt Q9BQI3)
[6] = molecular target: Atypical kinase COQ8A, mitochondrial (Homo sapiens, UniProt Q8NI60)
[7] = molecular target: NADH dehydrogenase [ubiquinone] 1 alpha subcomplex subunit 13 (Homo sapiens, UniProt Q9P0J0)
[8] = molecular target: T3, Serine/threonine-protein kinase Nek9 (Homo sapiens, UniProt Q8TD19)
T3 sequence (Q8TD19 whole entry): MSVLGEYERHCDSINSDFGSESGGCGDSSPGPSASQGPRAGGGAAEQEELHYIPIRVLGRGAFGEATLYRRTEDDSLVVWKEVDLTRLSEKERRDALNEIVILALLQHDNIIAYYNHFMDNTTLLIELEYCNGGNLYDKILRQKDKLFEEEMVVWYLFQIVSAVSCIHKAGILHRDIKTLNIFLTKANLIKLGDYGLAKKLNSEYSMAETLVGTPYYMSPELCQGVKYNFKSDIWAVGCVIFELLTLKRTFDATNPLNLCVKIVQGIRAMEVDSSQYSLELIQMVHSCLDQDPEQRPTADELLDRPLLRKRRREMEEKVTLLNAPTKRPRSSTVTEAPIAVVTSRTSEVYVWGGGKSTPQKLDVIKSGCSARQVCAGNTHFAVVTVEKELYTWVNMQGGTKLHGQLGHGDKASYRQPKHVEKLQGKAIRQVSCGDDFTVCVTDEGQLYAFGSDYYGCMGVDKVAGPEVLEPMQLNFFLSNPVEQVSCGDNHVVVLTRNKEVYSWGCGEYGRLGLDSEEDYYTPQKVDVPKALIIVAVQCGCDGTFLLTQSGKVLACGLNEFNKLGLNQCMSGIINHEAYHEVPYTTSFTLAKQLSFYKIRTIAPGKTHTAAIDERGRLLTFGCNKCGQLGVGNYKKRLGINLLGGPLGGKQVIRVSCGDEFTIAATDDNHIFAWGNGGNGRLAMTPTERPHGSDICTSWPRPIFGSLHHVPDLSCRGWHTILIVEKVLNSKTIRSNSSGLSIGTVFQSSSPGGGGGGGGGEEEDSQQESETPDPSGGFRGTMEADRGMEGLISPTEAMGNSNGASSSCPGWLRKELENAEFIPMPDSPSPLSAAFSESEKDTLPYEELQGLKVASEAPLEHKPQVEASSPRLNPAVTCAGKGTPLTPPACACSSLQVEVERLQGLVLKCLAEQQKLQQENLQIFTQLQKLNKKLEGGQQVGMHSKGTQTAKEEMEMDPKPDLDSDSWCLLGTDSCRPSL

Activin receptor type-2B = Activin receptor type-2B (Homo sapiens, UniProt Q13705)
Also: in the data inactive means no Kd found up to 30 µM.

Sequence of Serine/threonine-protein kinase MRCK alpha (Q5VT25 whole entry): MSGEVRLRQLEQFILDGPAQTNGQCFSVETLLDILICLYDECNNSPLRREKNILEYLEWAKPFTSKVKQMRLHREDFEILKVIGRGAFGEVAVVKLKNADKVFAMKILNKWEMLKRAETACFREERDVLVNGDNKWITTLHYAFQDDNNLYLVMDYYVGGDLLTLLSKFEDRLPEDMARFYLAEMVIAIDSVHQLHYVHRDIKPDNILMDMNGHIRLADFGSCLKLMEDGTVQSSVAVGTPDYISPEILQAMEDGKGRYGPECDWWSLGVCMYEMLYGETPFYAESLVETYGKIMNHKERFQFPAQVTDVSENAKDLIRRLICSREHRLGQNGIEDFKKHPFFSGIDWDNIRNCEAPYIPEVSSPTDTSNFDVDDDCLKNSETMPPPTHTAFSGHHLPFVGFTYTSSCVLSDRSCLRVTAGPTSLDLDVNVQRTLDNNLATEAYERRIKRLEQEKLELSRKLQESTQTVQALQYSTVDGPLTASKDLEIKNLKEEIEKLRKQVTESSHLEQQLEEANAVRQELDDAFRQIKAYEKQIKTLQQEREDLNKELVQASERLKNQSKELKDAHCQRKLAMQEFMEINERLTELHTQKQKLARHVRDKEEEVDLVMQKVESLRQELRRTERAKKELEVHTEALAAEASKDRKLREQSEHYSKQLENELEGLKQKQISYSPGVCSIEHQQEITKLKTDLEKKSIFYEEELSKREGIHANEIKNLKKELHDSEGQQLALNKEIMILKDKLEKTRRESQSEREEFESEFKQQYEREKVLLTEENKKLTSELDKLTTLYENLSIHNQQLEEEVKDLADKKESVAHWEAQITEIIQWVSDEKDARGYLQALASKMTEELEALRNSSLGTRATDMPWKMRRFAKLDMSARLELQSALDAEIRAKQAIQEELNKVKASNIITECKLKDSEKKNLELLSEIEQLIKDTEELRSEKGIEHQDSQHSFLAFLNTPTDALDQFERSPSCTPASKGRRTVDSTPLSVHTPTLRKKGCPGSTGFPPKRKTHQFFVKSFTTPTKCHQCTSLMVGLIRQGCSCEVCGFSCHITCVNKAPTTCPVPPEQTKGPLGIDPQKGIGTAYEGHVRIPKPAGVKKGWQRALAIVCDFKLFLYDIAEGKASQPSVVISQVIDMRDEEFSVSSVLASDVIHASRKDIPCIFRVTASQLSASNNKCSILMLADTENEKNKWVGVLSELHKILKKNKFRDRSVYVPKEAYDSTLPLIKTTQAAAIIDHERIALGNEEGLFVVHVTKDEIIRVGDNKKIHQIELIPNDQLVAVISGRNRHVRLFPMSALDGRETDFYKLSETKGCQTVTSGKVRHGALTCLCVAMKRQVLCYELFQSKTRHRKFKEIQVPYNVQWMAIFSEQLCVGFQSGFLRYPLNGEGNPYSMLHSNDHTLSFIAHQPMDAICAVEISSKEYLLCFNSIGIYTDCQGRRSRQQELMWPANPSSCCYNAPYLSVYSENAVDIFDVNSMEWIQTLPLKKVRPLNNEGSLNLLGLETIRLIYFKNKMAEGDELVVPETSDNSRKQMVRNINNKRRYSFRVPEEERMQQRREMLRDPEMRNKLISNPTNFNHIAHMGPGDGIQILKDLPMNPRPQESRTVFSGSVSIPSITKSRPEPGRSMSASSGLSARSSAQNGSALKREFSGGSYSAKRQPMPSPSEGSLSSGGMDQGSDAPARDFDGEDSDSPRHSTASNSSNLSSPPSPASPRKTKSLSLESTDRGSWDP
Sequence of Activin receptor type-2B (Q13705 whole entry): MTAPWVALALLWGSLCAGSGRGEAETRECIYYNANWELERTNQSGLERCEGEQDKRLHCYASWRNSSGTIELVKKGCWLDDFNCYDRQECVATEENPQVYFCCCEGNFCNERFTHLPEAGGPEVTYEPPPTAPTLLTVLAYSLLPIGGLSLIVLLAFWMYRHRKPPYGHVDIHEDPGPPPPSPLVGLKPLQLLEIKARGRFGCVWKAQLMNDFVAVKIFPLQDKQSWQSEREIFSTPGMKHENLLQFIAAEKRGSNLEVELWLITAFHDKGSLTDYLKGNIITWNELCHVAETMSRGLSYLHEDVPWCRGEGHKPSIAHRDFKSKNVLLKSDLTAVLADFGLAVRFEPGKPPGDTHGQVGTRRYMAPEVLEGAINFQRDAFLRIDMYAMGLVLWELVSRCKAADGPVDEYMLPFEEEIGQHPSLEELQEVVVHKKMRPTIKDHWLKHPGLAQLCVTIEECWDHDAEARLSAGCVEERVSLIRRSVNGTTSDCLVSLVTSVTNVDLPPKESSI
Sequence of Eukaryotic translation initiation factor 2-alpha kinase 1 (Q9BQI3 whole entry): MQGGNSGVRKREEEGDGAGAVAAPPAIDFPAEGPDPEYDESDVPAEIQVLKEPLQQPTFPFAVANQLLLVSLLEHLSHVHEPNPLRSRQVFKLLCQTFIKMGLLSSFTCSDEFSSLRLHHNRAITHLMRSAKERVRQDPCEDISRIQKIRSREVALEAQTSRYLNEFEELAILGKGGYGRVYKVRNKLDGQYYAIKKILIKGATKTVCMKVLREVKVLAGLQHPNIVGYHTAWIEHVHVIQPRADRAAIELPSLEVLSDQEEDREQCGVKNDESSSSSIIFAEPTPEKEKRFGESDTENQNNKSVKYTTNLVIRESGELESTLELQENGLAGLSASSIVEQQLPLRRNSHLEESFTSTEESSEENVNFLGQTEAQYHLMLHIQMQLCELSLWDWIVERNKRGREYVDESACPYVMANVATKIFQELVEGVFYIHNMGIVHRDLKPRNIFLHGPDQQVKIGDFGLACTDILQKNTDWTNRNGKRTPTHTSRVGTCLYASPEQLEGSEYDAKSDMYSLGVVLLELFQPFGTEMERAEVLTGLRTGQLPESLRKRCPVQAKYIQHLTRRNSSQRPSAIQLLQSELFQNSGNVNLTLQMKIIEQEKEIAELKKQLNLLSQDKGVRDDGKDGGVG
Sequence of Atypical kinase COQ8A, mitochondrial (Q8NI60 whole entry): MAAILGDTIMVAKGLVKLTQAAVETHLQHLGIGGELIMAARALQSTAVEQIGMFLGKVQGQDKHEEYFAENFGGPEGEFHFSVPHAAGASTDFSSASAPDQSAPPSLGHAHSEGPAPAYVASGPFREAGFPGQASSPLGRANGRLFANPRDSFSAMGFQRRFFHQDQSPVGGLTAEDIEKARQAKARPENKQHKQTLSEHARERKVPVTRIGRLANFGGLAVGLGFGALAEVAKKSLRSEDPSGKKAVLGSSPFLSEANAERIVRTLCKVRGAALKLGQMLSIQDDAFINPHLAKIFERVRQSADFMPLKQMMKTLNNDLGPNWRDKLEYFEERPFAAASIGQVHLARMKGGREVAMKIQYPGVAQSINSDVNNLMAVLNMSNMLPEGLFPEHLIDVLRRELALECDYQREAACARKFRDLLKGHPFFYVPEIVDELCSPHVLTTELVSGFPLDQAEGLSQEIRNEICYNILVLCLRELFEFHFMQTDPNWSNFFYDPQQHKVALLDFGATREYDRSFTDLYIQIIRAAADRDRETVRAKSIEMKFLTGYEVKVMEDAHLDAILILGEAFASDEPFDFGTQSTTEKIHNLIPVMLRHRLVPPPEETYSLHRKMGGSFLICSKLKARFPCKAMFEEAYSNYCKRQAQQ
Sequence of NADH dehydrogenase [ubiquinone] 1 alpha subcomplex subunit 13 (Q9P0J0 whole entry, one chain of several): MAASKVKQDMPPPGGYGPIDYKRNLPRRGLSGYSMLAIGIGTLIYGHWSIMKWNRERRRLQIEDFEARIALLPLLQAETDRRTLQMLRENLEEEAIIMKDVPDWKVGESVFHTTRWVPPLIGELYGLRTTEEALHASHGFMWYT
Sequence of Tyrosine-protein kinase HCK (P08631 whole entry): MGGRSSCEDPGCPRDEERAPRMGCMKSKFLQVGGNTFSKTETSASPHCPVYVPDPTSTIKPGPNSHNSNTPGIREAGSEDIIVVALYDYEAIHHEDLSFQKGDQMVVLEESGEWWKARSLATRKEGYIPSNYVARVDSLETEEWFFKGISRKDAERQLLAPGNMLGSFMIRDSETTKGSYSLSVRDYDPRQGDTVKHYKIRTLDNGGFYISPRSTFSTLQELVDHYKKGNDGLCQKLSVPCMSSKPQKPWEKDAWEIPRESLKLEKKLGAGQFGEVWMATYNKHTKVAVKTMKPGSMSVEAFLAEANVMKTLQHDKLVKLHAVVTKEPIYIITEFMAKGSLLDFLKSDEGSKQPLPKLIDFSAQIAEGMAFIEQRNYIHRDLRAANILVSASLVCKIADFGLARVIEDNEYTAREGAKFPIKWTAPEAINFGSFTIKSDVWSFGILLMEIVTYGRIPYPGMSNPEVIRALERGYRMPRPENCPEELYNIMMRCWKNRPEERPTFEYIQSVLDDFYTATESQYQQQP
Sequence of Ribosomal protein S6 kinase alpha-3 (P51812 whole entry): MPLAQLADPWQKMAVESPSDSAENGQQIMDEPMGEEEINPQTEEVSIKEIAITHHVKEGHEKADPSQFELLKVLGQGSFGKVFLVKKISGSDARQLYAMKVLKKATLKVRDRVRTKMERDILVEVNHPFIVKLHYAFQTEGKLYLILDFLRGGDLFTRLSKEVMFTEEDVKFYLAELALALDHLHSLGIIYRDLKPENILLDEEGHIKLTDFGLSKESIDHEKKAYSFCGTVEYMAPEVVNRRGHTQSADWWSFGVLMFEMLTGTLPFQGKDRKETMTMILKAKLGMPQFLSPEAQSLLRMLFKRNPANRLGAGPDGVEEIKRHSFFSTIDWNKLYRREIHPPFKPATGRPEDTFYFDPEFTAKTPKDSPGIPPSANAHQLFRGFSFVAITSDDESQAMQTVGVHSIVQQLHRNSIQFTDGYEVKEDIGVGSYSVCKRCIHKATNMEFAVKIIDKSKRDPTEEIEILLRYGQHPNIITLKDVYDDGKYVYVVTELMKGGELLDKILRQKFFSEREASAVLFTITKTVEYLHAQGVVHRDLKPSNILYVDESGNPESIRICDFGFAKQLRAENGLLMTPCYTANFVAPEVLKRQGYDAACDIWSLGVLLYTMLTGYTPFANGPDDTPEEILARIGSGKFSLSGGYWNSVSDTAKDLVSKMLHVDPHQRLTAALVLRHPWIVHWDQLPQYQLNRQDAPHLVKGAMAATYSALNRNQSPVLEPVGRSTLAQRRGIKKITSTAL

Row | Kd [1] | Kd [2] | Kd (Ephrin type-B receptor 3) | Kd [3] | Kd [4] | Kd [5] | Kd [6] | Kd [7] | Kd (Activin receptor type-2B) | SMILES | Kd [8]
1 | > 30 µM (inactive) | > 30 µM (inactive) | > 30 µM (inactive) | > 30 µM (inactive) | > 30 µM (inactive) | > 30 µM (inactive) | > 30 µM (inactive) | > 30 µM (inactive) | > 30 µM (inactive) | Cn1ncc(Cl)c1-c1cc(C(=O)N[C@H](CN)Cc2cccc(F)c2)sc1Cl [AFURESERTIB] | > 30 µM (inactive)
2 | > 30 µM (inactive) | > 30 µM (inactive) | > 30 µM (inactive) | > 30 µM (inactive) | > 30 µM (inactive) | > 30 µM (inactive) | > 30 µM (inactive) |  | > 30 µM (inactive) | CNS(=O)(=O)Nc1nccc(Cc2c(C)c3ccc(Oc4ncccn4)cc3oc2=O)c1F [AVUTOMETINIB] | > 30 µM (inactive)
3 | > 30 µM (inactive) | > 30 µM (inactive) | > 30 µM (inactive) | > 30 µM (inactive) |  |  | > 30 µM (inactive) | > 30 µM (inactive) | > 30 µM (inactive) | CN1N=C(N)c2cn([C@@H]3O[C@H](COP(=O)(O)O)[C@@H](O)[C@H]3O)c3ncnc1c23 [TRICIRIBINE PHOSPHATE] | > 30 µM (inactive)
4 | > 30 µM (inactive) |  | > 30 µM (inactive) | > 30 µM (inactive) | > 30 µM (inactive) | > 30 µM (inactive) | > 30 µM (inactive) | > 30 µM (inactive) | > 30 µM (inactive) | OCCn1cc(-c2cnc3nnn(Cc4ccc5ncccc5c4)c3n2)cn1 [PF-04217903] | > 30 µM (inactive)
5 | > 30 µM (inactive) |  | > 30 µM (inactive) | > 30 µM (inactive) | > 30 µM (inactive) | > 30 µM (inactive) | > 30 µM (inactive) | > 30 µM (inactive) | > 30 µM (inactive) | CCc1cnn2c(NCc3ccc[n+]([O-])c3)cc(N3CCCC[C@H]3CCO)nc12 [DINACICLIB] | > 30 µM (inactive)
6 | > 30 µM (inactive) | > 30 µM (inactive) | > 30 µM (inactive) | > 30 µM (inactive) | > 30 µM (inactive) | > 30 µM (inactive) | > 30 µM (inactive) |  | > 30 µM (inactive) | CNC(=O)c1ccc(-c2cnc3ncc(Cc4ccc5ncccc5c4)n3n2)cc1F [CAPMATINIB] | > 30 µM (inactive)
7 |  |  | > 30 µM (inactive) | > 30 µM (inactive) |  | > 30 µM (inactive) | 65.3 µM (active) | > 30 µM (inactive) | > 30 µM (inactive) | Cc1nc(N)sc1-c1ccnc(Nc2ccc(N3CCOCC3)cc2)n1 [CYC-116] | 0.133 µM (active)
8 | > 30 µM (inactive) | > 30 µM (inactive) | > 30 µM (inactive) | > 30 µM (inactive) | > 30 µM (inactive) | > 30 µM (inactive) | > 30 µM (inactive) | > 30 µM (inactive) |  | Cc1ccc(S(=O)(=O)Nc2nc3ccccc3nc2Nc2ccc3nsnc3c2)cc1 | > 30 µM (inactive)
9 |  |  |  | > 30 µM (inactive) |  |  |  | > 30 µM (inactive) |  | CN1CCN(c2ccc3nc(-c4c(N)c5c(F)cccc5[nH]c4=O)[nH]c3c2)CC1 [DOVITINIB] | 
10 | > 30 µM (inactive) |  | > 30 µM (inactive) | > 30 µM (inactive) |  |  | > 30 µM (inactive) | > 30 µM (inactive) | > 30 µM (inactive) | Cc1cc(Nc2cc(N3CCN(C)CC3)nc(/C=C/c3ccccc3)n2)n[nH]1 [ENMD-2076] | 
11 |  |  |  | > 30 µM (inactive) |  |  |  | > 30 µM (inactive) |  | Nc1nc(N)c2nc(-c3cccc(O)c3)c(-c3cccc(O)c3)nc2n1 [TG100-115] | 
12 |  |  |  | > 30 µM (inactive) |  |  |  | > 30 µM (inactive) |  | CCn1c(-c2nonc2N)nc2c(C#CC(C)(C)O)ncc(OC[C@H]3CCCNC3)c21 [GSK-690693] | 
13 | > 30 µM (inactive) | > 30 µM (inactive) | > 30 µM (inactive) | > 30 µM (inactive) |  | > 30 µM (inactive) | > 30 µM (inactive) | > 30 µM (inactive) | > 30 µM (inactive) | CN1CCC(CNc2ccc3ncc(-c4cccc(OC(F)(F)F)c4)n3n2)CC1 [SGI-1776] | > 30 µM (inactive)
14 | > 30 µM (inactive) | > 30 µM (inactive) | > 30 µM (inactive) | > 30 µM (inactive) | > 30 µM (inactive) | > 30 µM (inactive) | > 30 µM (inactive) |  | > 30 µM (inactive) | C[C@@H](c1ccc2nccn2c1)n1nnc2ncc(-c3cnn(C)c3)nc21 [SAVOLITINIB] | > 30 µM (inactive)

Row | SMILES | Kd [1] | Kd [2] | Kd (Ephrin type-B receptor 3) | Kd [3] | Kd [4] | Kd [5] | Kd [6] | Kd [7] | Kd (Activin receptor type-2B) | Kd [8]
15 | Cc1cn(-c2cc(NC(=O)c3ccc(C)c(Nc4nccc(-c5cccnc5)n4)c3)cc(C(F)(F)F)c2)cn1 [NILOTINIB] |  |  |  | > 30 µM (inactive) |  |  |  | > 30 µM (inactive) |  | 
16 | C=CC(=O)N1CCC(Oc2cc3c(Nc4ccc(Cl)c(Cl)c4F)ncnc3cc2OC)CC1 [POZIOTINIB] | > 30 µM (inactive) | > 30 µM (inactive) | > 30 µM (inactive) | > 30 µM (inactive) | > 30 µM (inactive) | > 30 µM (inactive) | > 30 µM (inactive) |  | > 30 µM (inactive) | > 30 µM (inactive)
17 | O=C(Nc1cccc(Cl)c1)Nc1ncc(CCNc2ncnc3ccsc23)s1 [SNS-314] | > 30 µM (inactive) |  | > 30 µM (inactive) |  |  | > 30 µM (inactive) | > 30 µM (inactive) | > 30 µM (inactive) | > 30 µM (inactive) | > 30 µM (inactive)

Reference: ChEMBL document CHEMBL3991601, “The target landscape of clinical kinase drugs” (Science, 2017)
